# Reference: patent US7008953B2, “3, 5 Disubstituted indazole compounds, pharmaceutical compositions, and methods for mediating or inhibiting cell proliferation” (Agouron Pharmaceuticals, Inc., priority 2003, dated 2006)
# Legend:
# [1] = system: AMP-activiated protein kinase (AMPK); assay: Panel of protein kinases: AMPK; assay type: biochemical; settings: method of Davies et al.
# Method: (§1) The compounds of the present invention were screened against a large panel of protein kinase to determine inhibition activity for CDK as against a variety of protein kinases. The assay was conducted using methods and materials described by Davies, S et al. Specificity and Mechanism of Action of Some Commonly Used Protein Kinase Inhibitors, Biochem J. 351, 95–105 (2000), the contents of which are herein incorporated by reference. The compounds were screened against a panel of protein kinases which include AMP-activiated protein kinase (AMPK), checkpoint kinase (CHK1), casein kinases 1 and 2 (CK1 and CK2), cytoplasmic tyrosine kinase (CSK), dual serine/threonine/tyrosine kinase (DYRK1A), glycogen synthase kinase 3 (GSK3B), c-Jun N-terminal kinase (JNK), lymphocyte kinase (LCK), mitogen-activated protein kinases 2, K-1a, K2 (MAPK2, MAPKAP-K1a, and MAPKAP-K2), MAPK kinase (MKK1, also called MEK), mitogen and stress-activated protein kinase 1 (MSK1), never-in-mitosis kinase 6 (NEK6), p70 ribosomal protein S6 kinase (P70s6K1), 3-phosphoinositide-dependent protein kinase 1 (PDK1), phosphorylase kinase (PHK), protein kinase A (PKA), protein kinase B (PKB, also called Akt), protein kinase C (PKCa), p38-regulated/activated kinase (PRAK), Rho-dependent protein kinase (ROCK-II), stress-activated protein kinase 2a, 2b, 3 and 4 (SAPK-2A or p38, SAPK-2b or p38β2, SAPK3 or p38γ, SAPK4 or p38δ, respectively), and serum- and glucocorticoid-induced kinase (SGK). Compound activity was grouped into categories of weak (<50%), moderate (50–75%) and strong inhibition (>75%).
# [2] = system: p70 ribosomal protein S6 kinase (P70s6K1); assay: Panel of protein kinases: P70s6K1; assay type: biochemical; settings: method of Davies et al.
# Method: as §1
# [3] = system: Rho-dependent protein kinase (ROCK-II); assay: Panel of protein kinases: ROCK-II; assay type: biochemical; settings: method of Davies et al.
# Method: as §1
# HCT 116 cell line = assay: Inhibition of cell growth, MTT tetrazolium salt assay; assay type: cell-based; settings: Homo sapiens, 50% inhibition of growth
# Method: Inhibition of cell growth was measured using the tetrazolium salt assay, which is based on the ability of viable cells to reduce 3-(4,5-dimethylthiazol-2-yl)-2,5-[2H]-diphenyltetrazolium bromide (MTT) to formazan (Mossman, Journal of Immunological Methods, vol. 65 (1983), pp. 55–58). The water-insoluble purple formazan product was then detected spectrophotometrically. The HCT 116 cell line was grown in 96-well plates. Cells were plated in the appropriate medium at a volume of 135 μl/well in McCoy's 5A Medium. Plates were incubated for four hours before addition of inhibitor compounds. Different concentrations of inhibitor compounds were added in 0.5% (v/v) dimethylsulfoxide (15 μL/well), and cells were incubated at 37° C. (5% CO2) for four to six days (depending on cell type). At the end of the incubation, MTT was added to a final concentration of 0.2 mg/mL, and cells were incubated for 4 hours more at 37° C. After centrifugation of the plates and removal of medium, the absorbance of the formazan (solubilized in dimethylsulfoxide) was measured at 540 nm. The concentration of inhibitor compound causing 50% inhibition of growth was determined from the linear portion of a semi-log plot of inhibitor concentration versus percentage inhibition. All results were compared to control cells treated only with 0.5% (v/v) dimethylsulfoxide.
# casein kinase 1 (CK1) = assay: Panel of protein kinases: CK1; assay type: biochemical; settings: method of Davies et al.
# Method: as §1
# MAPKAP-K1a = MAPKAP-K1a (Homo sapiens, UniProt Q15418); assay: Panel of protein kinases: MAPKAP-K1a; assay type: biochemical; settings: method of Davies et al.
# Method: as §1
# [4] = target: T1, 3-phosphoinositide-dependent protein kinase 1 (PDK1) (Homo sapiens, UniProt O15530); assay: Panel of protein kinases: PDK1; assay type: biochemical; settings: method of Davies et al.
# T1 sequence (O15530 1-556): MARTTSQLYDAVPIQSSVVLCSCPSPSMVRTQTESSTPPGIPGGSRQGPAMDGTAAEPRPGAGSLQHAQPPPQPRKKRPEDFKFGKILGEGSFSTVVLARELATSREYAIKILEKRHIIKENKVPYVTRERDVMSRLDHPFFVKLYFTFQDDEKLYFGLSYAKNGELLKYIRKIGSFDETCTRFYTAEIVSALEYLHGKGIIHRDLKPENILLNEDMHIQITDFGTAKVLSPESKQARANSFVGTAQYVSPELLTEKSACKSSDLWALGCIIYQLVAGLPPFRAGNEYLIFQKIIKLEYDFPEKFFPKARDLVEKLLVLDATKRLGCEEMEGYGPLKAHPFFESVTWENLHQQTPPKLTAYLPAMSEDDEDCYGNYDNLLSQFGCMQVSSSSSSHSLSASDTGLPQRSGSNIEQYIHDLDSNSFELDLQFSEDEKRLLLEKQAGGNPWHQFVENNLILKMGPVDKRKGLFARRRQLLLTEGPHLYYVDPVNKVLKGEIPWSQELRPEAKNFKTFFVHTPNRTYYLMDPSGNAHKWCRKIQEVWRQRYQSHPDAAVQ
# Method: as §1
# MAPKAP-K2 = MAPKAP-K2 (Homo sapiens, UniProt P49137); assay: Panel of protein kinases: MAPKAP-K2; assay type: biochemical; settings: method of Davies et al.
# Method: as §1
# [5] = target: protein kinase B (PKB, also called Akt) (Homo sapiens, UniProt P31749); assay: Panel of protein kinases: PKB; assay type: biochemical; settings: method of Davies et al.
# Method: as §1
# casein kinase 2 (CK2) = assay: Panel of protein kinases: CK2; assay type: biochemical; settings: method of Davies et al.
# Method: as §1
# Sequence of MAPKAP-K2 (P49137 whole entry, species assumed): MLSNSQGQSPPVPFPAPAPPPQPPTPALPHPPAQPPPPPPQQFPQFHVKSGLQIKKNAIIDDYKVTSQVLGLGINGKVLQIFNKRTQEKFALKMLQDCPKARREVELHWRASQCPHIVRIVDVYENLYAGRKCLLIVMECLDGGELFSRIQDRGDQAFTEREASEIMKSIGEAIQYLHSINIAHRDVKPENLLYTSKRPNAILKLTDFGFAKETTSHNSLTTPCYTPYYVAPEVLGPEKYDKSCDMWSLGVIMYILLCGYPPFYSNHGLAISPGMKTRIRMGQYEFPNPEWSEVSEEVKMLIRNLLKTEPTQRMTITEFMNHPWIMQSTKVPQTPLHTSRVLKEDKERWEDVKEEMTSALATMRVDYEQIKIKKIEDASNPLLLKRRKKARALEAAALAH
# Sequence of MAPKAP-K1a (Q15418 whole entry, species assumed): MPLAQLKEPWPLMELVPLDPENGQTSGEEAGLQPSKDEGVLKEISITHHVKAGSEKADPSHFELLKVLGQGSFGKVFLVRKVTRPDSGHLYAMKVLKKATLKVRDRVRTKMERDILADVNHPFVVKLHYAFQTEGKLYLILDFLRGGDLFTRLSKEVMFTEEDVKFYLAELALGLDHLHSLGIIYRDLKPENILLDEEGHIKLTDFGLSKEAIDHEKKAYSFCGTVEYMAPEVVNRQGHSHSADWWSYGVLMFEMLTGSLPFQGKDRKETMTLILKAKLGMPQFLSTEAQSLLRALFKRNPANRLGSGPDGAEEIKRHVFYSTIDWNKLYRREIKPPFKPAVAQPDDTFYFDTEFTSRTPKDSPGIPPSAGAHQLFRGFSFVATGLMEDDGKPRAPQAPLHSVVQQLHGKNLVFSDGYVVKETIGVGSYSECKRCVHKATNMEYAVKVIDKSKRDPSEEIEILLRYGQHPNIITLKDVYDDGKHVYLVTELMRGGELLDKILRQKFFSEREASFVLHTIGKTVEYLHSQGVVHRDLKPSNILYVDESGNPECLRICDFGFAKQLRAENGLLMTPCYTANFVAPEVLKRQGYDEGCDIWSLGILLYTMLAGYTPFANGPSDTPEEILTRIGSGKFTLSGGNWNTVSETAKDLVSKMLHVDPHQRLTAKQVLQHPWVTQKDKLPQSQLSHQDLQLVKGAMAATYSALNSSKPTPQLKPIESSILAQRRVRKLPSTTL
# Sequence of protein kinase B (PKB, also called Akt) (P31749 118-480 limits assumed, species assumed): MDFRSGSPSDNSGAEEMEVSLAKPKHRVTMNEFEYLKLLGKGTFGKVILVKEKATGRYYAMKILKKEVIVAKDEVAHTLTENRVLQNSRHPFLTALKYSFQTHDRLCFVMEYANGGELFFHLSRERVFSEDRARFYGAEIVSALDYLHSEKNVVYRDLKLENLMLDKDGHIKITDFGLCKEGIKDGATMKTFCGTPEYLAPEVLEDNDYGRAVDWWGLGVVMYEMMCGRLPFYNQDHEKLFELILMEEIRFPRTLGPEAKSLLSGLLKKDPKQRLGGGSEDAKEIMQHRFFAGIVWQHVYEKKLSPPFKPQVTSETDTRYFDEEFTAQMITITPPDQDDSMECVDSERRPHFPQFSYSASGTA
SMILES,Kinase AMPK inhibition [1],Kinase P70s6K1 inhibition [2],Kinase ROCK-II inhibition [3],IC50 (HCT 116 cell line) [nM],Kinase CK1 inhibition (casein kinase 1 (CK1)),Kinase MAPKAP-K1a inhibition (MAPKAP-K1a),Kinase PDK1 inhibition [4],Kinase MAPKAP-K2 inhibition (MAPKAP-K2),Kinase PKB inhibition [5],Kinase CK2 inhibition (casein kinase 2 (CK2))
CCNCc1cncc(-c2ccc3[nH]nc(-c4nc5ccccc5[nH]4)c3c2)c1C [A],++ (Strong inhibition >75%),+ (Moderate inhibition 50–75%),++ (Strong inhibition >75%),70,− (Weak inhibition <50%),++ (Strong inhibition >75%),+ (Moderate inhibition 50–75%),− (Weak inhibition <50%),− (Weak inhibition <50%),− (Weak inhibition <50%)
CCNCc1cncc(-c2ccc3[nH]nc(-c4nc5c(C(=O)NC)cccc5[nH]4)c3c2)c1C [B],++ (Strong inhibition >75%),+ (Moderate inhibition 50–75%),+ (Moderate inhibition 50–75%),90,− (Weak inhibition <50%),++ (Strong inhibition >75%),− (Weak inhibition <50%),− (Weak inhibition <50%),− (Weak inhibition <50%),− (Weak inhibition <50%)
CCNCc1cncc(-c2ccc3[nH]nc(-c4nc5c(SC)cccc5[nH]4)c3c2)c1C [C],++ (Strong inhibition >75%),− (Weak inhibition <50%),+ (Moderate inhibition 50–75%),86,− (Weak inhibition <50%),++ (Strong inhibition >75%),− (Weak inhibition <50%),− (Weak inhibition <50%),− (Weak inhibition <50%),− (Weak inhibition <50%)
CCNCc1cncc(-c2ccc3[nH]nc(-c4nc5c(NC(C)=O)cccc5[nH]4)c3c2)c1C [D],++ (Strong inhibition >75%),− (Weak inhibition <50%),− (Weak inhibition <50%),> 500,− (Weak inhibition <50%),+ (Moderate inhibition 50–75%),− (Weak inhibition <50%),− (Weak inhibition <50%),− (Weak inhibition <50%),− (Weak inhibition <50%)
"CCNCc1cncc(-c2ccc3[nH]nc(-c4nc5c(F)cc(F)cc5[nH]4)c3c2)c1C [Example 1, {5-[3-(4,6-Difluoro-1H-benzoimidazol-2-yl)-1H-indazol-5-yl]-4-methyl-pyridin-3-ylmethyl}-ethyl-amine]",++ (Strong inhibition >75%),− (Weak inhibition <50%),− (Weak inhibition <50%),120,− (Weak inhibition <50%),++ (Strong inhibition >75%),− (Weak inhibition <50%),− (Weak inhibition <50%),− (Weak inhibition <50%),− (Weak inhibition <50%)
"CCNCc1cncc(-c2ccc3[nH]nc(-c4nc5cc(F)ccc5[nH]4)c3c2)c1C [Example 2, Ethyl-{5-[3-(5-fluoro-1H-benzoimidazol-2-yl)-1H-indazol-5-yl]-4-methyl-pyridin-3-ylmethyl}-amine]",,,,22,,− (Weak inhibition <50%),− (Weak inhibition <50%),− (Weak inhibition <50%),− (Weak inhibition <50%),
